Experiment [1] has as its target Recombinant human Bcl-2 protein (Homo sapiens (Human), UniProt P10415). Put plainly: Bcl-2 TR-FRET Assay. It counts as binding. A digest of the protocol: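 Compounds were pre-incubated with 0.05 nM recombinant Bcl-2 for 0.5 h at room temperature in potassium phosphate buffer, pH 7.5. FITC-Bak peptide (0.5 nM) and Tb-cryptate antibody were then added for 1 h. Percent inhibition from TR-FRET signals gave IC50 values.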
(In TR-FRET formats the signal depends on donor and acceptor labels being close together.)

Experiment [2] concerns BCL-2 G101V knock-in cell line H96 (derive from RS4;11). The experiment can be described thus: Bcl 2-G101V Knock-In RS4;11 Cell Proliferation Assay. Type of experiment: cell-based. As to conditions: Homo sapiens, RS4;11 Bcl-2 G101V knock-in clone H96, 48 hrs, CellTiter-GLO, read-out: Cellular proliferation assay (IC50, nM) RS4. The procedure, abridged:
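H96, a CRISPR-generated RS4;11 clone carrying BCL2-G101V knock-in (WES/RNA-seq validated), seeded 50,000 per well and exposed 48 h at 37 °C to 10-point dilutions topping at 1 or 10 μM. Viability by CellTiter-Glo luminescence; mean IC50.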
(ATP-based viability assays read luminescence as a measure of living cells.)

Experiment [3] deals with recombinant human Bcl-2 D103Y protein (Homo sapiens (Human), UniProt P10415, D103Y). The experiment can be described thus: Bcl-2-D103Y Biochemical Assay (TR-FRET). It counts as binding. As to conditions: for IC50: TR-FRET, FITC labeled Bak peptide; for ratio of Bcl-2 D103Y/Bcl-2 wt, compared with F91b in WO2019210828: comparison in words; for Ratio of Bcl-2 D103Y/Bcl-2 WT: ratio of IC50. The procedure, abridged: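 Recombinant human Bcl-2 D103Y binding to its ligand measured by TR-FRET (ex 337 nm, em 490/520 nm) with increasing compound concentrations. Percent inhibition from the 490/520 nm ratio; IC50 from four-parameter logistic fit.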

Experiment [4] relates to recombinant human Bcl-2-G101V protein. Put plainly: Bcl-2-G101V TR-FRET Assay. It counts as binding. As to conditions: for ratio of IC50 of Bcl-2 G101V/Bcl-2 wt, compared with Example F132b in WO2019210828 and ABT-199 (venetoclax): comparison in words; for Ratio of Bcl-2 G101V/WT: ratio of biochemical IC50 Bcl-2 G101V / Bcl-2 WT. A digest of the protocol: (§1)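 Percent inhibition of the Bcl-2-G101V–ligand interaction was computed from the 490 nm to 520 nm emission ratio after 337 nm excitation, over increasing compound concentrations; a four-parameter logistic fit gave IC50.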

Experiment [5] concerns the target recombinant human Bcl-2-G101V protein (Homo sapiens (Human), UniProt P10415, G101V). The experiment can be described thus: Bcl-2-G101V TR-FRET Assay. As to conditions: Bcl-2 G101V mutant, TR-FRET; read-out: Biochemical assay (IC50, nM) Bcl-2 G101V. It counts as binding. A digest of the protocol:
as §1

Experiment [6] deals with RS4;11 (BCL-2 dependent acute lymphoblastic leukemia cell line). Put plainly: RS4;11 Cell Proliferation Assay. It counts as cell-based. As to conditions: read-out: Cellular proliferation assay (IC50, nM) RS4. A digest of the protocol:
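RS4;11 cells, 50,000 per well in RPMI-1640 with 10% FBS, treated 48 h at 37 °C with a 10-point dilution series topping at 1 μM. Viability read by CellTiter-Glo ATP luminescence; mean IC50 reported.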

[7] abbreviates: Bcl-2 wild type, TR-FRET, read-out: Biochemical assay (IC50, nM) Bcl-2 WT.
Setting [8] is: wild type Bcl-2, unit inferred, read-out: Bcl-2 WT.
Where [9] appears, read: Homo sapiens, RS4-11, RS4;11 cells.

Like-named read-outs stand apart in the source and are kept apart here.

Turning to `CC(C)c1ccccc1C1CN(C(C)c2ccccc2)CCN1C1CC2(CCN(c3ccc(C(=O)NS(=O)(=O)c4ccc(NC[C@H]5CC[C@](C)(O)CC5)c([N+](=O)[O-])c4)c(Oc4cnc5[nH]ccc5c4)c3)CC2)C1` (single isomer, unassigned) [Example 24b, 2-((1H-pyrrolo[2,3-b]pyridin-5-yl)oxy)-N-((4-((((1r,4r)-4-hydroxy-4-methylcyclohexyl)methyl)amino)-3-nitrophenyl)sulfonyl)-4-(2-(2-(2-isopropylphenyl)-4-(1-phenylethyl)piperazin-1-yl)-7-azaspiro[3.5]nonan-7-yl)benzamide], the IC50 in experiment [1] (setting [7]) turned out to be 0.24 nM; in experiment [1] (setting [8]) it was 0.24 nM; in experiment [2], 6.49 nM; in experiment [3], 560 pM; in experiment [5] it was 1.1 nM; in experiment [6] (RS4;11 cells) it was 0.75 nM. The “ratio of Bcl-2 D103Y/Bcl-2 wt, compared with F91b in WO2019210828” value in experiment [3] is reported as “significantly lower”. In experiment [3], the “Ratio of Bcl-2 D103Y/Bcl-2 WT” value is reported as 2.3. In addition, the “ratio of IC50 of Bcl-2 G101V/Bcl-2 wt, compared with Example F132b in WO2019210828 and ABT-199 (venetoclax)” value in experiment [4] is “much lower”. Moreover, in experiment [4], the “Ratio of Bcl-2 G101V/WT” value is reported as 4.6.

For `CC(C)c1ccccc1[C@@H]1CN(Cc2ccc(F)cc2)CCN1C1CC2(CCN(c3ccc(C(=O)NS(=O)(=O)c4ccc(NC[C@H]5CC[C@](C)(O)CC5)c([N+](=O)[O-])c4)c(Oc4cnc5[nH]ccc5c4)c3)CC2)C1` (single isomer, unassigned) [Example 28a, 2-((1H-pyrrolo[2,3-b]pyridin-5-yl)oxy)-4-(2-((R or S)-4-(4-fluorobenzyl)-2-(2-isopropylphenyl)piperazin-1-yl)-7-azaspiro[3.5]nonan-7-yl)-N-((4-((((1r,4r)-4-hydroxy-4-methylcyclohexyl)methyl)amino)-3-nitrophenyl)sulfonyl)benzamide], the IC50 came to 0.098 nM in experiment [1] (setting [7]); 0.098 nM in experiment [1] (setting [8]); 1.23 nM in experiment [2]; 200 pM in experiment [3]; 0.33 nM in experiment [5]; 0.21 nM in experiment [6] (setting [9]). In experiment [3], the “Ratio of Bcl-2 D103Y/Bcl-2 WT” value stood at 2.1. In addition, the “Ratio of Bcl-2 G101V/WT” value in experiment [4] is reported as 3.3.

For the compound `CC(C)c1ccccc1[C@@H]1CN(Cc2ccc(Cl)cc2)CCN1C1CC2(CCN(c3ccc(C(=O)NS(=O)(=O)c4ccc(NC[C@H]5CC[C@](C)(O)CC5)c([N+](=O)[O-])c4)c(Oc4cnc5[nH]ccc5c4)c3)CC2)C1` (single isomer, unassigned) [Example 29a, 2-((1H-pyrrolo[2,3-b]pyridin-5-yl)oxy)-4-(2-((R or S)-4-(4-chlorobenzyl)-2-(2-isopropylphenyl)piperazin-1-yl)-7-azaspiro[3.5]nonan-7-yl)-N-((4-((((1r,4r)-4-hydroxy-4-methylcyclohexyl)methyl)amino)-3-nitrophenyl)sulfonyl)benzamide], the IC50 in experiment [1] (setting [7]) stood at 0.2 nM; in experiment [1] (setting [8]), 0.2 nM; in experiment [2] it was 1.42 nM; in experiment [3] it was 380 pM; in experiment [5], 0.72 nM; in experiment [6] (setting [9]) it was 0.22 nM. In experiment [3], the “Ratio of Bcl-2 D103Y/Bcl-2 WT” value is recorded as 1.9. Further, the “Ratio of Bcl-2 G101V/WT” value in experiment [4] came to 3.5.

Consider `COc1ccc(CN2CCN(C3CC4(CCN(c5ccc(C(=O)NS(=O)(=O)c6ccc(NC[C@H]7CC[C@](C)(O)CC7)c([N+](=O)[O-])c6)c(Oc6cnc7[nH]ccc7c6)c5)CC4)C3)[C@H](c3ccccc3C(C)C)C2)c(OC)c1` (single isomer, unassigned) [Example 48a, 2-((1H-pyrrolo[2,3-b]pyridin-5-yl)oxy)-4-(2-((R or S)-4-(2,4-dimethoxybenzyl)-2-(2-isopropylphenyl)piperazin-1-yl)-7-azaspiro[3.5]nonan-7-yl)-N-((4-((((1r,4r)-4-hydroxy-4-methylcyclohexyl)methyl)amino)-3-nitrophenyl)sulfonyl)benzamide], for which the IC50 in experiment [1] (setting [7]) was 0.045 nM; in experiment [1] (setting [8]), 0.045 nM; in experiment [2], 0.81 nM; in experiment [3], 100 pM; in experiment [5], 0.21 nM; in experiment [6] (setting [9]), 0.16 nM. Further, the “Ratio of Bcl-2 D103Y/Bcl-2 WT” value in experiment [3] turned out to be 2.3. The “Ratio of Bcl-2 G101V/WT” value in experiment [4] turned out to be 4.6.

Take `COc1ccc(CN2CCN(C3CC4(CCN(c5ccc(C(=O)NS(=O)(=O)c6ccc(NC[C@@H]7CN(C8COC8)CCO7)c([N+](=O)[O-])c6)c(Oc6cnc7[nH]ccc7c6)c5)CC4)C3)[C@@H](c3ccccc3C(C)C)C2)cc1` (single isomer, unassigned) [Example 84, 2-((1H-pyrrolo[2,3-b]pyridin-5-yl)oxy)-4-(2-((R or S)-2-(2-isopropylphenyl)-4-(4-methoxybenzyl)piperazin-1-yl)-7-azaspiro[3.5]nonan-7-yl)-N-((3-nitro-4-((((R)-4-(oxetan-3-yl)morpholin-2-yl)methyl)amino)phenyl)sulfonyl)benzamide]: the IC50 in experiment [1] (setting [7]) turned out to be 0.028 nM; in experiment [1] (setting [8]) it was 0.028 nM; in experiment [2] it was 0.6 nM; in experiment [3] it was 49 pM; in experiment [5], 0.15 nM; in experiment [6] (setting [9]), 0.206 nM. The “ratio of Bcl-2 D103Y/Bcl-2 wt, compared with F91b in WO2019210828” value in experiment [3] is “significantly lower”. The “Ratio of Bcl-2 D103Y/Bcl-2 WT” value in experiment [3] was determined as 1.8. Further, in experiment [4], the “ratio of IC50 of Bcl-2 G101V/Bcl-2 wt, compared with Example F132b in WO2019210828 and ABT-199 (venetoclax)” value is on record as “much lower”. Moreover, in experiment [4], the “Ratio of Bcl-2 G101V/WT” value turned out to be 5.2.

As for `CC(C)c1ccccc1C1CN(C2CCC2)CCN1C1CC2(CCN(c3ccc(C(=O)NS(=O)(=O)c4ccc(NC[C@H]5CC[C@](C)(O)CC5)c([N+](=O)[O-])c4)c(Oc4cnc5[nH]ccc5c4)c3)CC2)C1` (some centres unmarked) [Example 5, 2-((1H-pyrrolo[2,3-b]pyridin-5-yl)oxy)-4-(2-(4-cyclobutyl-2-(2-isopropylphenyl)piperazin-1-yl)-7-azaspiro[3.5]nonan-7-yl)-N-((4-((((1r,4r)-4-hydroxy-4-methylcyclohexyl)methyl)amino)-3-nitrophenyl)sulfonyl)benzamide], the IC50 in experiment [1] (setting [7]) was determined as 0.037 nM; in experiment [1] (setting [8]) it was 0.037 nM; in experiment [2], 5.33 nM; in experiment [3], 320 pM; in experiment [5], 0.45 nM; in experiment [6] (setting [9]), 0.58 nM. Besides, the “Ratio of Bcl-2 D103Y/Bcl-2 WT” value in experiment [3] turned out to be 12. Also, in experiment [4], the “Ratio of Bcl-2 G101V/WT” value stood at 12.2.

Turning to `CC(C)c1ccccc1C1CN(C2COC2)CCN1C1CC2(CCN(c3ccc(C(=O)NS(=O)(=O)c4ccc(NC[C@H]5CC[C@](C)(O)CC5)c([N+](=O)[O-])c4)c(Oc4cnc5[nH]ccc5c4)c3)CC2)C1` (some centres unmarked) [Example 6, 2-((1H-pyrrolo[2,3-b]pyridin-5-yl)oxy)-N-((4-((((1r,4r)-4-hydroxy-4-methylcyclohexyl)methyl)amino)-3-nitrophenyl)sulfonyl)-4-(2-(2-(2-isopropylphenyl)-4-(oxetan-3-yl)piperazin-1-yl)-7-azaspiro[3.5]nonan-7-yl)benzamide], the IC50 in experiment [1] (setting [7]) turned out to be 0.013 nM; in experiment [1] (setting [8]), 0.013 nM; in experiment [2], 4.83 nM; in experiment [3], 180 pM; in experiment [5], 0.32 nM; in experiment [6] (setting [9]), 0.53 nM. In experiment [3], the “Ratio of Bcl-2 D103Y/Bcl-2 WT” value amounted to 24. In addition, the “Ratio of Bcl-2 G101V/WT” value in experiment [4] was 24.6.

For `CC(C)c1ccccc1C1CN(C2CCOCC2)CCN1C1CC2(CCN(c3ccc(C(=O)NS(=O)(=O)c4ccc(NC[C@H]5CC[C@](C)(O)CC5)c([N+](=O)[O-])c4)c(Oc4cnc5[nH]ccc5c4)c3)CC2)C1` (some centres unmarked) [Example 10, 2-((1H-pyrrolo[2,3-b]pyridin-5-yl)oxy)-N-((4-((((1r,4r)-4-hydroxy-4-methylcyclohexyl)methyl)amino)-3-nitrophenyl)sulfonyl)-4-(2-(2-(2-isopropylphenyl)-4-(tetrahydro-2H-pyran-4-yl)piperazin-1-yl)-7-azaspiro[3.5]nonan-7-yl)benzamide], the IC50 in experiment [1] (setting [7]) is 0.012 nM; in experiment [1] (setting [8]), 0.012 nM; in experiment [2], 3.16 nM; in experiment [3], 120 pM; in experiment [5] it was 0.21 nM; in experiment [6] (setting [9]) it was 0.42 nM. Besides, the “Ratio of Bcl-2 D103Y/Bcl-2 WT” value in experiment [3] came to 10. In experiment [4], the “Ratio of Bcl-2 G101V/WT” value was determined as 17.5.

(Values after patent US20240376097A1, “BCL-2 Inhibitor” (BeiGene Ltd., priority 2020, published 2024).)
